# Test results from US20240150377A1, “MODULATORS OF CYSTIC FIBROSIS TRANSMEMBRANE CONDUCTANCE REGULATOR” (VERTEX PHARMACEUTICALS INCORPORATED, priority 2020, published 2024).
# Like-named read-outs stand apart in the source and are kept apart here.
# Key:
# [1] = amide bond, 13-membered ring
# F508del = biological target: T1, F508del (Homo sapiens, UniProt P13569, DEL508-508); assay: 3T3 assay: membrane potential optical assay for F508del correction; type: cell-based; conditions: F508del NIH 3T3 cells; for Emax: NIH3T3, compared to lumacaftor in combination with acutely added 300 nM Ivacaftor, read-out: 3T3 Max Activity; for EC50: 18-24 hours at 37° C., forskolin, acutely added 300 nM Ivacaftor
# T1 construct: expressed in transfected cells
# T1 sequence (P13569 with tags, fused parts or gaps DEL508-508): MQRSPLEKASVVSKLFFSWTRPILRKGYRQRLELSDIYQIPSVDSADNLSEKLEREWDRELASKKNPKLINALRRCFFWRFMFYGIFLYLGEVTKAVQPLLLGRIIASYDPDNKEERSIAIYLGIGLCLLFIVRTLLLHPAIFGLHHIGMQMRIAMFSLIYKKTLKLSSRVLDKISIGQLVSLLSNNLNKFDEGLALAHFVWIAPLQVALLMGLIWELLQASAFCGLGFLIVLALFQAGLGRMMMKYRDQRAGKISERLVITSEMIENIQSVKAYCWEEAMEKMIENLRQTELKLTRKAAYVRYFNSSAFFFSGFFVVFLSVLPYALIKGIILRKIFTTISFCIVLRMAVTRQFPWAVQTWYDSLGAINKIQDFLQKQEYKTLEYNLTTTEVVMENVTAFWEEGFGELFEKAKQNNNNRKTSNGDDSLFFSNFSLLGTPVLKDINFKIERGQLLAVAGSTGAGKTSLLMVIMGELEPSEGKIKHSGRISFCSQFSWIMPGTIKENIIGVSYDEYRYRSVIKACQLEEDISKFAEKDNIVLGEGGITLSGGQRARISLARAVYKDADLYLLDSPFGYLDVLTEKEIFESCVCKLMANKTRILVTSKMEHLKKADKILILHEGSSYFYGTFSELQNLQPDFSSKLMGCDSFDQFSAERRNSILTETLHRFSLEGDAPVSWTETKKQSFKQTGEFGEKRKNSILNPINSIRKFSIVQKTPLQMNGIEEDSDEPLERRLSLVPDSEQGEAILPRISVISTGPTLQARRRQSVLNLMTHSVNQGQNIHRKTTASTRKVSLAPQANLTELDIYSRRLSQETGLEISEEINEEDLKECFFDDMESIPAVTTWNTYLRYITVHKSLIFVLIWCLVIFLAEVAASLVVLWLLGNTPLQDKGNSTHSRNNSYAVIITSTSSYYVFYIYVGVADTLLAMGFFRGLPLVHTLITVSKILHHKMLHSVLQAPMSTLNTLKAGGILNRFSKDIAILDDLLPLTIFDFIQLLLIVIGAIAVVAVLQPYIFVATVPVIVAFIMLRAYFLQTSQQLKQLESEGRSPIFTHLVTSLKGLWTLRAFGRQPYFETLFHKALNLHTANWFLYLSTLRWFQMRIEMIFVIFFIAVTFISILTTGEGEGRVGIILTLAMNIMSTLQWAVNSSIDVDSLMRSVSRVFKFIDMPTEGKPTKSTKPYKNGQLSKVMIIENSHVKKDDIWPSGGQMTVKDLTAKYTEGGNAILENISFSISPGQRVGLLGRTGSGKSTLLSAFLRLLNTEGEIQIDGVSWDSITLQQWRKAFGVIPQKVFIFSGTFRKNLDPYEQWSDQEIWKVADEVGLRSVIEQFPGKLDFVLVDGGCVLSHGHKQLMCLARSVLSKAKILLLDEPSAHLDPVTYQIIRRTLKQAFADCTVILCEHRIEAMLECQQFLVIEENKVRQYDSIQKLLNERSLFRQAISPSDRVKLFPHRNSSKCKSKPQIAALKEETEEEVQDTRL
# Source text: 1. Membrane Potential Optical Methods for Assaying F508del Modulation Properties of Compounds
# The assay utilizes fluorescent voltage sensing dyes to measure changes in membrane potential using a fluorescent plate reader (e.g., FLIPR III, Molecular Devices, Inc.) as a readout for increase in functional F508del in NIH 3T3 cells. The driving force for the response is the creation of a chloride ion gradient in conjunction with channel activation by a single liquid addition step after the cells have previously been treated with compounds and subsequently loaded with a voltage sensing dye.
# 2. Identification of Corrector Compounds
# To identify correctors of F508del, a single-addition HTS assay format was developed. This HTS assay utilizes fluorescent voltage sensing dyes to measure changes in membrane potential on the FLIPR III as a measurement for increase in gating (conductance) of F508del in F508del NIH 3T3 cells. The F508del NIH 3T3 cell cultures were incubated with the corrector compounds at a range of concentrations for 18-24 hours at 37° C., and subsequently loaded with a redistribution dye. The driving force for the response is a Cl^− ion gradient in conjunction with channel activation with forskolin in a single liquid addition step using a fluorescent plate reader such as FLIPR III.
# Bath Solution #1: (in mM) NaCl 160, KCl 4.5, CaCl2) 2, MgCl2 1, HEPES 10, pH 7.4 with NaOH.
# Chloride-free bath solution: Chloride salts in Bath Solution #1 (above) are substituted with gluconate salts.
# NIH3T3 mouse fibroblasts stably expressing F508del are used for optical measurements of membrane potential. The cells are maintained at 37° C. in 5% CO2 and 90% humidity in Dulbecco's modified Eagle's medium supplemented with 2 mM glutamine, 10% fetal bovine serum, 1× NEAA, b-ME, 1×pen/strep, and 25 mM HEPES in 175 cm^2 culture flasks. For all optical assays, the cells were seeded at ˜20,000/well in 384-well Matrigel-coated plates. For the correction assays, the cells are cultured at 37° C. with and without compounds for 16-24 hours.
# CFTR [2] = biological target: T2, CFTR (Homo sapiens, UniProt P13569); assay: Membrane potential dye, Enteroid Assay A; type: cell-based; conditions: for Ent. A Max Activity: chloride transport as % of triple combination control (Enteroid Assay A); for EC50: human enteroid cells, 18-24 hours, acute 10 μM forskolin and 300 nM ivacaftor, read-out: Ent. A EC50
# T2 sequence (P13569 with tags, fused parts or gaps DEL508-508): as above
# In short: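 % Activity: chloride transport relative to a 3 μM/3 μM corrector pair plus 300 nM acute potentiator control. Primary human enteroid cells, 18-24 h compound exposure at 37 °C; membrane potential dye (methyl oxonol) fluorescence over 15 min after forskolin (10 μM)/IBMX (100 μM)/Compound III (300 nM) stimulation in chloride-free buffer.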
# CFTR [3] = biological target: T2, CFTR; assay: Membrane potential dye, Enteroid Assay B; type: cell-based; conditions: Table 6
# In short: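 Fluorescence read over 15 min after chloride-free stimulation (10 μM forskolin, 100 μM IBMX, 300 nM Compound III) gave chloride transport, reported as % activity versus a triple-corrector/potentiator control. Beforehand, human enteroid cells had 18-24 h compound exposure at 37° C and 25 min methyl oxonol dye loading at room temperature.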
SMILES,Emax (F508del; Table 6) [%],EC50 (F508del; Table 6) [nM],Ent. A Max Activity (CFTR [2]; Table 6),EC50 (CFTR [2]; Table 6) [nM],Emax (F508del; Table 7) [%],EC50 (F508del; Table 7) [nM],Ent. A Max Activity (CFTR [2]; Table 7),EC50 (CFTR [2]; Table 7) [nM],also measured
CCOC(=O)CCCCN1C(=O)c2cccc(c2)S(=O)(=O)Nc2nc(cc(-c3c(C)cccc3C)n2)OC[C@H]1CC(C)(C)C,–,–,–,–,–,–,–,–,"ring closure, yield after HPLC ([1]; from CCOC(=O)CCCCN[C@@H](COc1cc(-c2c(C)cccc2C)nc(NS(=O)(=O)c2cccc(C(=O)O)c2)n1)CC(C)(C)C, HATU/DIEA, DMF, 62.0 mM, 25.0 °C, 1.0 h): 66%"
CCOC(=O)COc1ccc(CN2C(=O)c3cccc(c3)S(=O)(=O)Nc3nc(cc(-c4c(C)cccc4C)n3)OC[C@H]2CC(C)(C)C)nc1,–,–,–,–,–,–,–,–,"ring closure, yield after HPLC ([1]; from CCOC(=O)COc1ccc(CN[C@@H](COc2cc(-c3c(C)cccc3C)nc(NS(=O)(=O)c3cccc(C(=O)O)c3)n2)CC(C)(C)C)nc1, HATU/DIEA, DMF, 29.1 mM, 25.0 °C, 4.0 h): 42%"
COC(=O)C12CC(CN3C(=O)c4cccc(c4)S(=O)(=O)Nc4nc(cc(-c5c(C)cccc5C)n4)OC[C@H]3CC(C)(C)C)(C1)C2,–,–,–,–,–,–,–,–,"ring closure, yield after HPLC ([1]; from COC(=O)C12CC(CN[C@@H](COc3cc(-c4c(C)cccc4C)nc(NS(=O)(=O)c4cccc(C(=O)O)c4)n3)CC(C)(C)C)(C1)C2, CDMT/NMM, DMF, 29.1 mM, 25.0 °C, 60.0 h): 27%"
Cc1cccc(C)c1-c1cc2nc(n1)NS(=O)(=O)c1cccc(c1)C(=O)N(C)CC(c1ccc(CC3(C(F)(F)F)CC3)cn1)O2 (stereo not shown),–,–,–,–,–,–,–,–,"ring closure, yield after HPLC ([1]; from CNCC(Oc1cc(-c2c(C)cccc2C)nc(NS(=O)(=O)c2cccc(C(=O)O)c2)n1)c1ccc(CC2(C(F)(F)F)CC2)cn1, HATU (excess NaOtBu from SNAr), THF/DMF, 49.6 mM, 25.0 °C, 3.0 h, 2 steps): 35%"
Cc1cccc(C)c1-c1cc2nc(n1)NS(=O)(=O)c1cccc(c1)C(=O)N(Cc1cccc(F)n1)[C@H](CC(C)(C)C)CO2,–,–,–,–,–,–,–,–,"ring closure, yield after HPLC ([1]; from 3-[[4-(2,6-dimethylphenyl)-6-[(2R)-2-[(6-fluoro-2-pyridyl)methylamino]-4,4-dimethyl-pentoxy]pyrimidin-2-yl]sulfamoyl]benzoic acid (Dihydrochloride salt), CDMT/NMM, DMF, 25.2 mM): 66%"
Cc1cccc(C)c1-c1cc2nc(n1)NS(=O)(=O)c1cccc(c1)C(=O)N(C)[C@H](C)[C@@H](c1ccc(C(C)(C)C)cc1)O2 [Compound 339],> 60,< 1000,++ (++ is 30-60%),< 1000,–,–,–,–,–
COc1ccc(CN2C(=O)c3cccc(c3)S(=O)(=O)Nc3nc(cc(-c4c(C)cccc4C)n3)OC[C@H]2CC(C)C)cc1 [Compound 347],> 60,< 1000,+++ (+++ is >60%),< 1000,–,–,–,–,–
Cc1cccc(C)c1-c1cc2nc(n1)NS(=O)(=O)c1cccc(c1)C(=O)N(CCCC1CCOCC1)[C@H](CC(C)C)CO2 [Compound 353],> 60,< 1000,+++ (+++ is >60%),< 1000,–,–,–,–,–
CCCCCCCCN1C(=O)c2cccc(c2)S(=O)(=O)Nc2nc(cc(-c3c(C)cccc3C)n2)OC[C@H]1CC(C)C [Compound 361],> 60,< 1000,+++ (+++ is >60%),< 1000,–,–,–,–,–
CCCCCN1C(=O)c2cccc(c2)S(=O)(=O)Nc2nc(cc(-c3c(C)cccc3C)n2)OC[C@H]1CC(C)C [Compound 362],> 60,< 1000,+++ (+++ is >60%),< 1000,–,–,–,–,–
Cc1cccc(C)c1-c1cc2nc(n1)NS(=O)(=O)c1cccc(c1)C(=O)N(CCC1CCN(C)CC1)[C@H](CC(C)C)CO2 [Compound 418],> 60,< 1000,+++ (+++ is >60%),< 1000,–,–,–,–,–
CNC(=O)c1ccc(CN2C(=O)c3cccc(c3)S(=O)(=O)Nc3nc(cc(-c4c(C)cccc4C)n3)OC[C@H]2CC(C)C)cc1 [Compound 419],> 60,< 1000,+++ (+++ is >60%),< 1000,–,–,–,–,–
Cc1cccc(C)c1-c1cc2nc(n1)NS(=O)(=O)c1cccc(c1)NC(=O)CN(C(=O)OC(C)(C)C)CCO2 [Compound 516],> 60,< 1000,+++ (+++ is >60%),3000 to 30000,–,–,–,–,–
Cc1cccc(C)c1-c1cc2nc(n1)NS(=O)(=O)c1cccc(c1)C(=O)N(C)C[C@H](c1ccc(C3CC3)cc1)O2 [Compound 669],–,–,–,–,> 60,< 1000,++ (++ is 30-60%),< 1000,–
Cc1cccc(C)c1-c1cc2nc(n1)NS(=O)(=O)c1cccc(c1)C(=O)N(CCC(C)C)[C@H](CCC1(C(F)(F)F)CC1)CO2 [Compound 850],> 60,< 1000,+++ (+++ is >60%),< 1000,–,–,–,–,–
Cc1cccc(C)c1-c1cc2nc(n1)NS(=O)(=O)c1cccc(c1)C(=O)N(CC(C)C)[C@H](CC(C)C)CO2 [Compound 865],> 60,< 1000,+++ (+++ is >60%),< 1000,–,–,–,–,–
Cc1cccc(C)c1-c1cc2nc(n1)NS(=O)(=O)c1cccc(c1)C(=O)N(Cc1ccc(N3CCCCC3)nc1)[C@H](CC(C)C)CO2 [Compound 974],–,–,–,–,> 60,< 1000,+++ (+++ is >60%),< 1000,–
Cc1cccc(C)c1-c1cc2nc(n1)NS(=O)(=O)c1cccc(c1)C(=O)N(Cc1ccc(N3CCC(C)CC3)nc1)[C@H](CC(C)C)CO2 [Compound 975],> 60,< 1000,+++ (+++ is >60%),< 1000,–,–,–,–,"Ent. B Max Activity (CFTR [3]; chloride transport as % of triple combination control (Enteroid Assay B)): +++ (+++ is >60%); EC50 (CFTR [3]; human enteroid cells, 18-24 hours, acute 10 μM forskolin and 300 nM ivacaftor, read-out: Ent. B EC50): < 1000 nM"
Cc1cccc(C)c1-c1cc2nc(n1)NS(=O)(=O)c1cccc(c1)CN(CCC(F)(F)F)[C@H](CC(C)C)CO2 [Compound 1021],–,–,–,–,> 60,< 1000,++ (++ is 30-60%),< 1000,–
Cc1cccc(C)c1-c1cc2nc(n1)NS(=O)(=O)c1cccc(c1)CN(CCCC1(C(F)(F)F)CC1)[C@H](CC(C)C)CO2 [Compound 1023],–,–,–,–,> 60,< 1000,++ (++ is 30-60%),< 1000,–
Cc1cccc(C)c1-c1cc2nc(n1)NS(=O)(=O)c1cccc(c1)CN(CCC1(C(F)(F)F)CC1)[C@H](CC(C)C)CO2 [Compound 1024],–,–,–,–,> 60,< 1000,++ (++ is 30-60%),< 1000,–
Cc1cccc(C)c1-c1cc2nc(n1)NS(=O)(=O)c1cccc(c1)CN(Cc1cnn(-c3ccccc3)c1C)[C@H](CC(C)C)CO2 [Compound 1026],–,–,–,–,> 60,< 1000,+++ (+++ is >60%),< 1000,–
Cc1cccc(C)c1-c1cc2nc(n1)NS(=O)(=O)c1cccc(c1)CN(Cc1cccc3c1OC(F)(F)O3)[C@H](CC(C)C)CO2 [Compound 1029],–,–,–,–,> 60,< 1000,++ (++ is 30-60%),< 1000,–
Cc1cccc(C)c1-c1cc2nc(n1)NS(=O)(=O)c1cccc(c1)CN(CCC(C)(C)C)[C@H](CC(C)C)CO2 [Compound 1043],> 60,< 1000,+++ (+++ is >60%),< 1000,–,–,–,–,–
CC(=O)N1CCC(CCN2C(=O)c3cccc(c3)S(=O)(=O)Nc3nc(cc(-c4c(C)cccc4C)n3)OC[C@H]2CC(C)C)CC1 [Compound 1107],–,–,–,–,> 60,< 1000,+++ (+++ is >60%),< 1000,–
Cc1cccc(C)c1-c1cc2nc(n1)NS(=O)(=O)c1cccc(c1)C(=O)N(C)[C@H](CC1CCCCC1)O2 [Compound 1193],> 60,< 1000,+++ (+++ is >60%),< 1000,–,–,–,–,–
